We go through 2 molecules from patent US10561681B2, “Antimetastatic 2H-selenopheno[3,2-h]chromenes, synthesis thereof, and methods of using same agents” (Latvian Institute of Organic Synthesis, priority 2016, dated 2020).

The test system of series [1] is mouse sarcoma CCRF-S180 II (CCL-8). The experiment in a line: Mouse non-metastatic cancer model, sarcoma CCL-8 s.c. in ICR mice. The series is classed as in vivo. As to conditions: s.c. Day 1, 2, 3, 4, 7, 8, 9, 10, 11; dose 5 mg/kg, total dose 45 mg/kg. On the procedure: Six-week-old female ICR and BALB/c mice were purchased from the University of Tartu Laboratory Animal Centre (Estonia). The mice were housed five to a cage, and under standard conditions (21-23° C., 12 h light: dark cycle), fed ad libitum (R3 diet, Lactamin AB, Kimstad, Sweden) and observed daily. The experimental procedures involving experimental animals were carried out in accordance with the guidelines of the European Community, local laws and policies, and were approved by the Latvian Animal Protection Ethical Committee, the Food and Veterinary Service, Riga, Latvia.
In vivo studies were performed utilizing the mouse sarcoma CCRF-S180 II (CCL-8) and Lewis lung carcinoma (LLC) cell line. All cell lines were purchased from ATCC. The cells were grown in Dulbecco's modified Eagle's medium (Sigma) supplemented with 10% fetal calf serum (Sigma).
ICR mice were subcutaneously inoculated in the back with 5×10^6 CCL-8 cells and BALB/c mice were inoculated with 1×10^6 LLC (Lewis Lung Carcinoma) cells, which were suspended in 0.1 mL of PBS on day zero of the study. The compounds dissolved in DMSO and then in 0.1 mL water (DMSO final concentration 1%) were injected s.c. Mice in the untreated group were similarly given doses of 0.1 mL of water with DMSO. Tumor volume (tumor volume V=[…], a is maximal and b the minimal tumor diameter) was recorded twice per week. The mice were examined every other day for diseases including appearance, weight and behavior. The mice were sacrificed at day 16 of the experiment by decapitation after ketamine/xylazine anesthesia.

A further series deals with B16-F10 melanoma cells. The experiment in a line: Melanoma model of lung metastasis in C57BL/6 mice. The note with it: total dose 140 mg/kg; for Inhibition of melanoma metastasis in lung: s.c. Day 1, 7, 8, 9, 10, 11, 14, 20 mg/kg, day 21; for Animals (group of six) without melanoma metastasis: s.c. In kind it is in vivo, mouse. The protocol:
B16-F10 cells (10,000/0.1 ml PBS) were injected i.v. into syngeneic mice. The number of macroscopic lung metastases was determined 21 days later.
C57BL/6 mice were injected with 100,000 B16-F10 melanoma cells into the mice via the tail vein and treatment started 24 hr later with subcutaneous injections (s.c.) of compounds administered according to the following scheme: 1, 7, 8, 9, 10, 11 and 14th days in dose 20 mg/kg. Mice in the control group were similarly given doses of 0.1 mL of water with DMSO (DMSO final concentration <1%). Twenty-one days later, all mice were anesthetized with ketamine/xylazine and euthanized, the mice were sacrificed and the black melanoma nodules on the lungs were measured. In each experiment, mice were weighed twice weekly.

The next series deals with 4T1 cells. The experiment in a line: Orthotropic model of 4T1 murine metastatic breast cancer in BALB/c mice. The series is classed as in vivo, mouse. As to conditions: 4T1 orthotropic; for Increase of spleen weight (splenomegaly) compared with healthy animals: control with tumors 316%. On the procedure: Orthotropic model of mouse breast cancer was developed by injection of 4T1 cells in the mammary fat pad of syngeneic BALB/c mice. In this case, 4T1 cells develops solid tumors following by metastasis in lung, liver, lymph nodes, and brain (Aslakson at al., Cancer Res, 1992, 52, 1399-1405).
In our experiments seven-week-old female BALB/c mice were injected orthotopically into the fourth mammary fat pad with 10^5 4T1 cells suspended in 0.01 mL of PBS on day zero of the study. The compounds dissolved in DMSO, diluted with 0.1 mL water (DMSO final concentration 1%) and injected s.c. The compounds were administered at 1, 2, 3, 11 days, dose 20 mg/kg. Mice in the untreated group were similarly given four doses of 0.1 mL of water with DMSO. Tumor volume (tumor volume V=[…], wherein “a” is the maximal, and “b”—the minimal tumor diameter) was calculated twice per week. The mice were examined every other day on appearance, weight and behavior. The mice were sacrificed at day 16 of the experiment by decapitation under ketamine/xylazine anesthesia. After euthanasia, the mice were dissected. The primary tumor, liver and spleen were removed, weighed and studied. All metastases in the internal organs were described.

A further series deals with malignant tumor cells. In words: In vitro cytotoxicity on monolayer tumor cell lines (panel, summary in words). In kind it is cell-based. As to conditions: summary of Table 1. The protocol:
Anticancer activity of selenopheno[h]chromenes was tested in vitro using cytotoxicity assay. Thus, monolayer tumor cell lines MDA-MB-435s (human melanoma), MCF-7 (human breast adenocarcinoma, estrogen-positive), MES-SA (human uterus sarcoma), HT-1080 (human fibrosarcoma), A549 (human lung carcinoma), SH-SY5Y (human neuroblastoma), CCL-8 (mouse sarcoma), MG-22A (mouse hepatoma), and HepG2 (human hepatocellular carcinoma) were cultured in standard medium DMEM (Dulbecco's modified Eagle's medium) (“Sigma”) supplemented with 10% fetal bovine serum (“Sigma”). About 2-9·10^4 cells/mL (depending on line nature) were placed in 96-well plates immediately after compounds were added to the wells. Untreated cells were used as a control. The plates were incubated for 72 h, 37° C., 5% CO2. The number of surviving cells was determined using 3-(4,5-dimethylthiazol-2-yl)-2,5-diphenyltetrazolinium bromide (MTT). MTT-test: after incubating culture medium was removed and 200 μL fresh medium with 10 mM HEPES was added in each well of the plate, than 20 μL MTT (2 mg/mL in HBSS) was added. After incubation (3 hr, 37° C., 5% CO2), the medium with MTT was removed and 200 μL DMSO were added at once to each sample. The samples were tested at 540 nm on Anthos HT II photometer.

Marks after values point to notes of the source that are not given here.

Consider `COC(=O)c1cc2ccc3c(Br)c(CN4CCN(C)CC4)[se]c3c2oc1=O` [Compound I-10, Methyl 7-bromo-8-((4-methylpiperazin-1-yl)methyl)-2-oxo-2H-selenopheno[3,2-h]chromene-3-carboxylate], for which the “Anticancer activity in vivo (inhibition, %), CCL-8 tumor volume” value in series [1] is reported as 42** %. Also, in the series on B16-F10 melanoma cells, the “Inhibition of melanoma metastasis in lung” value worked out at 74% and the “Animals (group of six) without melanoma metastasis” value was “five”. For the same molecule, in the series with 4T1 cells, the “Formation of metastases” value is “dramatically reduces the formation of metastases” and the “Increase of spleen weight (splenomegaly) compared with healthy animals” value came out at 256%. For the same molecule, in the series on malignant tumor cells, the “Cytotoxicity on cancer cell lines” value is recorded as “low toxic to the cancer cell lines”.
As to `O=C(O)c1cc2ccc3c(Br)c(C4(O)CCCCC4)[se]c3c2oc1=O` [Compound I-11, 7-Bromo-8-(1-hydroxycyclohexyl)-2-oxo-2H-selenopheno[3,2-h]chromene-3-carboxylic acid], the “Anticancer activity in vivo (inhibition, %), CCL-8 tumor volume” value in series [1] is listed as 58* %. Moreover, in the series with B16-F10 melanoma cells, the “Inhibition of melanoma metastasis in lung” value worked out at 96% and the “Animals (group of six) without melanoma metastasis” value was “four”. In addition, in the series on 4T1 cells, the “Formation of metastases” value is reported as “dramatically reduces the formation of metastases” and the “Increase of spleen weight (splenomegaly) compared with healthy animals” value is on record as 198%. Besides, in the series on malignant tumor cells, the “Cytotoxicity on cancer cell lines” value is “complete loss of cytotoxicity”.
